Common to all, as to type: ADME, organism-based
Series [1] can be described thus: Pharmacokinetic parameters for Indomethacin evaluated after oral administration of Indomethacin capsules. The settings on record: human, in vivo, dosed compound id 57, dosed compound name INDOMETHACIN, tissue Plasma.
Series [2] in a line: (§1) Pharmacokinetic parameters for Indomethacin evaluated after single oral administration of 25 or 50 mg Indomethacin capsules. Conditions: human, in vivo, dosed compound id 57, dosed compound name INDOMETHACIN, regimen Single dose, tissue Plasma. Further details: dose 25 mg, dose 50 mg, route oral.
Another series has as its system Homo sapiens. Described as §1. Further details: dose 25 mg, dose 50 mg, route oral. Conditions: in vivo, po, dosed compound id 57, dosed compound name INDOMETHACIN, regimen Single dose, tissue Plasma.

Molecule `COc1ccc2c(c1)c(CC(=O)O)c(C)n2C(=O)c1ccc(Cl)cc1` [INDOMETHACIN] gave a bioavailability in series [1] of 100%. In series [1], this molecule showed a half-life of 4.5 h. The fraction unbound in series [1] (read-out: Protein binding) amounted to 0.01. The Cmax in series [2] (po) amounted to 1000 ng/mL; in the series with Homo sapiens it was 2000 ng/mL. Also, the Tmax in series [2] (dose 25 mg, route oral) stood at 2 h.

The term bioavailability denotes the share of a dose that reaches the circulation, judged against a reference dose that is usually intravenous. As a reminder, the half-life is the time in which the quantity being followed falls by half. Higher therefore signals slow loss. In general, Cmax refers to the highest concentration seen after dosing. Broadly, the Tmax is the time from dosing to the highest level.

Source of the values: ChEMBL document CHEMBL3832069, “DailyMed|setid=b463cd5f-299a-45f8-a1b3-c9e7fe271955 | INDOMETHACIN- indomethacin capsule|PD-Rx Pharmaceuticals, Inc”.
